Measured values from patent publication US10391115B2, “Anticancer adjuvant composition containing RIP3 expression promoter as active ingredient, method for screening for anticancer adjuvant enhancing sensitivity of anticancer drug by promoting RIP3 expression, and method for monitoring sensitivity of anticancer drug” (AJOU UNIVERSITY INDUSTRY-ACADEMIC COOPERATION FOUNDATION, priority 2014, dated 2019).

Columns and labels:
T47D breast cancer cells = assay: Viability assay (MTT) of RIP3-silenced T47D cells with anticancer drugs; assay type: cell-based, human; conditions: 48 hours; for anticancer drug resistance (MTT assay): RIP3-knocked down T47D test group vs control group; for cell killing (MTT assay): control group T47D
Description: In order to examine whether RIP3 also has an effect on breast cancer cells, RIP3-expressing T47D cells were used. First, the cells were infected with RIP3 in the same manner as described in Example 6.
In order to examine whether RIP3 increases anticancer drug sensitivity in T47D breast cancer cells, an MTT assay was performed. A control group and a RIP3-knocked down test group were incubated with doxorubicin, etoposide and taxol at the concentrations shown in FIG. 11 (right) for 48 hours.

HT-29 cells = assay: Viability assay (MTT) of RIP3-silenced HT-29 cells with anticancer drugs; assay type: cell-based, human; conditions: doxorubicin 2.5 and 5 uM, etoposide 50 and 100 uM, 48 hours
Description: HT-29 cells (American Tissue Culture Collection) were cultured in a 37° C. incubator using DMEM medium supplemented with penicillin-streptomycin (10 IU/ml) and 10% FBS. The shRNAi double strand used in the present invention was commercially synthesized by Sigma-Aldrich. The shRNA used in the present invention was designed so as to target the coding region of a human RIPK3 mRNA sequence (NCBI Reference sequence NM_006871).
First, cultured HT-29 cells were dispensed in a 35-mm dish at a density of 2×10^5 cells. On the next day, the cells were infected with shRNA particles together with polybrene (10 ug/ml) according to the protocol's instruction.
In the present invention, in order to examine whether the RIP3 gene is associated with anticancer drug sensitivity, HT-29 cells infected with RIP3 shRNA were treated with varying concentrations of doxorubicin and etoposide, and then the cell viability of the cancer cells was measured. Particularly, HT-29 cells infected with RIP3 shRNA were treated with 2.5 uM and 5 uM of doxorubicin and 50 uM and 100 uM of etoposide, and then incubated for 48 hours. After the medium was replaced with a fresh medium containing 0.1 mg of MTT (3-([4,5-dimethylthiazol-2-yl]-2,5-diphenyltetrazolium bromide), the cells were further incubated for 2 hours. Colorimetric analysis was performed on a precipitate obtained by reducing a tetrazolium salt, in which viable cells is dissolved, into purple formazan crystal. Next, the medium was removed, and the produced formazan crystal was dissolved in 500 ul of DMSO, and the absorbance was measured using an ELISA reader at 570 nm. Cell viability was expressed as a percentage relative to the control taken as 100% viability.

HeLa cell lines = assay: Sensitization of cancer cell death by combined treatment with demethylating agent and anticancer drug; conditions: pretreated two times for 4 days to induce RIP3 expression, then anticancer drug
[1] = tested on: HeLa cell line (non-target / shRIP3); assay: Sensitization by 5-AD plus anticancer drug in non-target and shRIP3 HeLa cell lines (immunoblotting, MTT assay); assay type: cell-based, human
Description: A MISSION short-hairpin RNA (shRNA) plasmid that targets the coding region or 3′ UTR of hRIP3 mRNA (NM_006871) or a non-target control sequence (NM-027088) were obtained from Sigma-Aldrich. A Lentivirus plasmid was transfected into 293T cells (System Biosciences, LV900A-1) using Lipofectamine 2000 (Invitrogen, 11668019). Pseudoviral particles were collected at 2 days after transfection of the Lentivirus plasmid and infected into various cancer cells in the presence of polybrene (10 μg/mL). At 2 days after infection, infected cells were selected with puromycin, and RIP3 knockdown was confirmed by immunoblotting. Cells without endogenous RIP3 were afterwards treated with 5-AD for 4 days and analyzed by immunoblotting.
Unlike a non-target cell line, in the case of a shRIP3 cell line, RIP3 expression in the cell line was inhibited by shRNA, even though the cell line was treated with 5-AD. Thus, the effect of RIP3 on sensitization of the cell line by a combined treatment with the anticancer drug and the demethylating agent could be confirmed. […] In addition, after the same number of cells seeded, the sensitization effect by the combined treatment with the anticancer drug was analyzed using a cell viability assay (MTT assay) (FIG. 6).
Because the demethylating agent (5-AD or 5-AZA) is not a specific drug for a certain protein, it may cause expression of various proteins in addition to RIP3.

[2] = tested on: RIP3 expression in cancer cell lines (HeLa, MDA-MB231, BT549); assay: RIP3 expression by demethylating agent 5-AD, Western blotting; assay type: cell-based; conditions: MDA-MB231, BT549 that express no RIP3, 5-AD 2 uM, treated two times for 4 days
Description: (§1) Cells were lysed in M2 buffer. Equal amounts of cell extracts were analyzed by SDS-PAGE and immunoblotting, and blots were visualized by enhanced chemiluminescence (ECL, Amersham).

[3] = tested on: RIP3 expression in DLD-1 colorectal cancer cell line; assay: RIP3 expression by demethylating agent 5-AZA, Western blotting; assay type: cell-based; conditions: DLD-1 not expressing RIP3; various concentrations of 5-AZA, treated two times for 4 days
Description: as §1

[4] = RIP3 knocked down with shRNA HT-29
[5] = control group (non-target shRNA) HT-29

SMILES | anticancer drug resistance (MTT assay) (T47D breast cancer cells) | cell killing (MTT assay) (T47D breast cancer cells) | cell viability (MTT) (HT-29 cells; [4]) | cell viability (MTT) (HT-29 cells; [5]) | sensitization to cell death by anticancer drug after demethylating agent pretreatment (HeLa cell lines) | also measured
CC(=O)O[C@H]1C(=O)[C@@]2(C)[C@H]([C@H](OC(=O)c3ccccc3)[C@]3(O)C[C@H](OC(=O)[C@H](O)[C@@H](NC(=O)c4ccccc4)c4ccccc4)C(C)=C1C3(C)C)[C@]1(OC(C)=O)CO[C@@H]1C[C@@H]2O [taxol] | significantly increased compared to that of the control group | killed dependently on the concentration |  |  |  | 
COc1cc([C@@H]2c3cc4c(cc3[C@@H](O[C@@H]3O[C@@H]5CO[C@@H](C)O[C@H]5[C@H](O)[C@H]3O)[C@H]3COC(=O)[C@H]23)OCO4)cc(OC)c1O [etoposide] | significantly increased compared to that of the control group | killed dependently on the concentration | the cell viability increased compared to that of the control group | the cell viability decreased dependently on the concentration |  | 
COc1cccc2c1C(=O)c1c(O)c3c(c(O)c1C2=O)C[C@@](O)(C(=O)CO)C[C@@H]3O[C@H]1C[C@H](N)[C@H](O)[C@H](C)O1 [doxorubicin] | significantly increased compared to that of the control group | killed dependently on the concentration | the cell viability increased compared to that of the control group | the cell viability decreased dependently on the concentration |  | 
Nc1ncn([C@H]2C[C@H](O)[C@@H](CO)O2)c(=O)n1 [5-AD, 5-aza-2′-deoxycytidine] |  |  |  |  | sensitized to anticancer drug | sensitization of cancer cell death by combined treatment with anticancer drug ([1]; non-target HeLa cell line, 5-AD treated two times for 4 days): showed the effect of sensitizing the cancer cell death by RIP3 expression; sensitization of cancer cell death by combined treatment with anticancer drug (cell viability assay) ([1]; shRIP3 HeLa cell line that expresses no RIP3): the sensitization effect was inhibited; RIP3 expression after 5-AD treatment ([1]; shRIP3 HeLa cell line, 5-AD treated two times for 4 days): RIP3 was not expressed; RIP3 expression (Western blotting) [2]: RIP3 expression was induced
Nc1ncn([C@@H]2O[C@H](CO)[C@@H](O)[C@H]2O)c(=O)n1 [5-AZA, 5-azacytidine] |  |  |  |  | the effect of sensitizing the cancer cell line to cell death was obtained | RIP3 expression (Western blotting) [3]: RIP3 expression was induced
